Each molecule was assayed against human FAK (Homo sapiens (Human), UniProt Q05397). Conditions: read-out: FAK IC50.
Sequence of human FAK (Q05397 whole entry): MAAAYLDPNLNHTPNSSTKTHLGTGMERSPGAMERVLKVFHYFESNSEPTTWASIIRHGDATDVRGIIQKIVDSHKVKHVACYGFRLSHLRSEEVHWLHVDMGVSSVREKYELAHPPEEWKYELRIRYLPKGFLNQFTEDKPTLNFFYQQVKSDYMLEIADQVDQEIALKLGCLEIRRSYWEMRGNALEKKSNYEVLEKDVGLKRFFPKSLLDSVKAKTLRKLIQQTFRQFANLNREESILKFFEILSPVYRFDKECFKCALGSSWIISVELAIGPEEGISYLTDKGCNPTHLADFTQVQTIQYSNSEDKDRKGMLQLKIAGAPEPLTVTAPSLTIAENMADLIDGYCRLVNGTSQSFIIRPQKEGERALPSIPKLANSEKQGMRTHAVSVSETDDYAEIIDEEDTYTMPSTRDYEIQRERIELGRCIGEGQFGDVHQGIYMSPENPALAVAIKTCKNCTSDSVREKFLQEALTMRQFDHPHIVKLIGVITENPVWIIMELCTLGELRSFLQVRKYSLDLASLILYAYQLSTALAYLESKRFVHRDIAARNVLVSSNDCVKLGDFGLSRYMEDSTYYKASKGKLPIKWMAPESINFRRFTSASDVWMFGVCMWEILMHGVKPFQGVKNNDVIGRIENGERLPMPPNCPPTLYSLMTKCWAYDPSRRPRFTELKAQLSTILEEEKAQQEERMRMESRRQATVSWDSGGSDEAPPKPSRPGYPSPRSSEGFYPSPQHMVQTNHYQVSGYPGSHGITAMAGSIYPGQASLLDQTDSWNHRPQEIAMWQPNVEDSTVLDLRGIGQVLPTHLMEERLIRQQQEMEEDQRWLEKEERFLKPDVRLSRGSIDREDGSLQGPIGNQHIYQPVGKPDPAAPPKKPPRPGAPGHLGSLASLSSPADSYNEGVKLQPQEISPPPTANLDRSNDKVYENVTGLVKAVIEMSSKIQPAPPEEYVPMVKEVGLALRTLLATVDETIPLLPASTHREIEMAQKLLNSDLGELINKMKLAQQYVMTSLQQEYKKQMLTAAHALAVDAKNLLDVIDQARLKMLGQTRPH
Protocol: The ability of compounds to inhibit the kinase activity of baculovirus-expressed human FAK and PYK2 was measured using the 96-well plate TRF assay system described above for JAK2. […] For the FAK kinase assay, the reaction mixture (total volume=100 μL/well) contained 20 mM HEPES (pH 7.2), 10 μM ATP, 5 mM MgCl2, 0.5 mM DTT, 0.1% BSA, and test compound (diluted in DMSO; 2.5% DMSO final in assay). For PYK2, the 100 μL assay solution consisted of 20 mM HEPES (pH 7.2), 3 μM ATP, 5 mM MnCl2, 0.1% BSA, and test compound (diluted in DMSO; 2.5% DMSO final in assay). Enzyme (10 ng/mL FAK or 25 ng/mL PYK2) was added and the reaction was allowed to proceed at room temperature for 30 min. Detection of the phosphorylated product was performed by adding 100 μL/well of Eu—N1 labeled PY100 antibody diluted 1:75000 in 0.25% BSA in TBS-T (PerkinElmer #AD0041). […] Inhibition data were analyzed using ActivityBase and IC50 curves generated using XLFit.
Work on COc1ccc(Nc2nc3c(-c4ccc(S(C)(=O)=O)cc4)cccn3n2)cc1 [Example 19, [8-(4-Methanesulfonyl-phenyl)-[1,2,4]triazolo[1,5-a]pyridin-2-yl]-(4-methoxy-phenyl)-amine] yielded an IC50 of 1580 nM.
In the case of CS(=O)(=O)c1ccc(-c2cccn3nc(Nc4ccc(N5CCC(N6CCOCC6)CC5)cc4)nc23)cc1 [Example 49, [8-(4-Methanesulfonyl-phenyl)-[1,2,4]triazolo[1,5-a]pyridin-2-yl]-[4-(4-morpholin-4-yl-piperidin-1-yl)-phenyl]-amine], the IC50 is reported as 251 nM.
In the case of CN1CCN(c2ccc(Nc3nc4c(-c5ccc(S(=O)(=O)N(C)C)cc5)cccn4n3)cc2)CC1 [Example 54, N,N-Dimethyl-4-{2-[4-(4-methyl-piperazin-1-yl)-phenylamino]-[1,2,4]triazolo[1,5-a]pyridin-8-yl}-benzenesulfonamide], the IC50 is reported as 787 nM.
CS(=O)(=O)c1ccccc1Nc1nc2c(Nc3ccccc3S(C)(=O)=O)cccn2n1 [Example 69, N(2),N(8)-Bis-(2-methanesulfonyl-phenyl)-[1,2,4]triazolo[1,5-a]pyridine-2,8-diamine] showed an IC50 of 6500 nM.
CS(=O)(=O)c1cccc(-c2cccc3nc(Nc4ccc(CN5CCOCC5)cc4)nn23)c1 [Example 87, [5-(3-Methanesulfonyl-phenyl)-[1,2,4]triazolo[1,5-a]pyridin-2-yl]-(4-morpholin-4-ylmethyl-phenyl)-amine] showed an IC50 of 341 nM.
CN1CCN(c2cncc(Nc3nc4cncc(-c5ccc(S(C)(=O)=O)cc5)n4n3)c2)CC1 [Example 108, [5-(4-Methanesulfonyl-phenyl)-[1,2,4]triazolo[1,5-a]pyrazin-2-yl]-[5-(4-methyl-piperazin-1-yl)-pyridin-3-yl]-amine] was tested, and the IC50 was 3370 nM.
For CN1CCN(c2ccc(Nc3nc4c(Nc5cccc(S(C)(=O)=O)c5)cccn4n3)cc2)CC1 [Example 109, N(8)-(3-Methanesulfonyl-phenyl)-N(2)-[4-(4-methyl-piperazin-1-yl)-phenyl]-[1,2,4]triazolo[1,5-a]pyridine-2,8-diamine], the IC50 was 10000 nM.
In the case of CN1CCN(c2ccc(Nc3nc4c(-c5cccc(N(C)S(C)(=O)=O)c5)cccn4n3)cc2)CC1 [Example 127, N-Methyl-N-(3-{2-[4-(4-methyl-piperazin-1-yl)-phenylamino]-[1,2,4]triazolo[1,5-a]pyridin-8-yl}-phenyl)-methanesulfonamide], the IC50 is reported as 3130 nM.
In the case of CN1C(=O)Cc2cc(Nc3nc4c(NCc5cccnc5N(C)S(C)(=O)=O)cccn4n3)ccc21 [Example 146, N-Methyl-N-(3-{[2-(1-methyl-2-oxo-2,3-dihydro-1H-indol-5-ylamino)-[1,2,4]triazolo[1,5-a]pyridin-8-ylamino]-methyl}-pyridin-2-yl)-methanesulfonamide], the IC50 is reported as 106 nM.
With CN1CCN(c2cccc(Nc3nc4c(NCc5ccccc5N(C)S(C)(=O)=O)cccn4n3)c2)CC1 [Example 148, N-Methyl-N-[2-({2-[3-(4-methyl-piperazin-1-yl)-phenylamino]-[1,2,4]triazolo[1,5-a]pyridin-8-ylamino}-methyl)-phenyl]-methanesulfonamide] the IC50 was 14.6 nM.
CN1CCC(c2ccc(Nc3nc4c(NCc5ccccc5CN(C)S(C)(=O)=O)cccn4n3)cc2)CC1 [Example 159, N-Methyl-N-[2-({2-[4-(1-methyl-piperidin-4-yl)-phenylamino]-[1,2,4]triazolo[1,5-a]pyridin-8-ylamino}-methyl)-benzyl]-methanesulfonamide] showed an IC50 of 538 nM.
Work on CN1CCN(c2ccc(Nc3nc4c(NCC5CCCN5S(C)(=O)=O)cccn4n3)cc2)CC1 (stereo not shown) [Example 170, N(8)-(1-Methanesulfonyl-pyrrolidin-2-ylmethyl)-N(2)-[4-(4-methyl-piperazin-1-yl)-phenyl]-[1,2,4]triazolo[1,5-a]pyridine-2,8-diamine] yielded an IC50 of 872 nM.
CS(=O)(=O)c1ccc(-c2cccn3nc(Nc4cccc(C5CCNCC5)c4)nc23)cc1 [Example 182, [8-(4-Methanesulfonyl-phenyl)-[1,2,4]triazolo[1,5-a]pyridin-2-yl]-(3-piperidin-4-yl-phenyl)-amine] was tested, and the IC50 was 1000 nM.
